System: fibrosarcoma cell line
Assay: screening model for ferroptosis, MTT cell viability assay with ferroptosis inducer Erastin
Assay type: cell-based
Conditions: Erastin 10 μM; 72 h; average of three tests
Procedure: In this example, in order to study the inhibitor of ferroptosis, a screening model for ferroptosis was constructed in house, and the details are as follows:
The screening model for ferroptosis mainly used the MTT cell viability assay. First, the fibrosarcoma cell line was cultured in a dish, and the cells in the logarithmic growth phase were seeded in a 96-well plate in specific numbers (3000-10000 cells/well), 100 μL per well, and then cultured in an incubator at 37° C. and 5% CO2 to allow the cells to adhere. After 24 h, 100 μL of compounds at certain concentrations prepared in the indicated medium and the ferroptosis inducer Erastin (final concentration of 10 μM) were added, and wells in triplicate were set up for each compound to ensure the accuracy of the results. A negative control group, positive control group (5 μM of ferrostain-1), blank control group and solvent control group were also set. After dosing, cells were placed in the incubator and cultured for 72h. […] The next day, the absorbance value at 570 nm was detected with a microplate reader to calculate the inhibition rate of the drug on ferroptosis. Generally, the absorbance value of the control group should be between 0.8-1.2 as a normal value. After obtaining the absorbance value data, the average value of wells in triplicate was calculated, and the inhibition rate was calculated using the following formula: […]

In the case of C=C(c1ccc2c(c1)Nc1ccccc1S2)c1cnc2c(cnn2C)c1 [Compound 28], the EC50 is reported as 58 nM.

Reference: patent publication US20230021442A1, “PHENOTHIAZINE FERROPTOSIS INHIBITOR, PREPARATION METHOD THEREFOR AND APPLICATION THEREOF” (CHENGDU HENGHAO INNOVATIVE SCIENCE AND TECHNOLOGY CO., LTD., priority 2019, published 2023)
